From PMC2607046 (Journal of medicinal chemistry, 2008)
Blank lines part the entries; values can stand above or below the compound they belong to.

Columns and labels:
[1] = molecular target: dopamine D3 receptor (Rattus norvegicus, UniProt P19020); type: binding
[2] = molecular target: dopamine D2L receptor (Rattus norvegicus, UniProt P61169); type: binding
[3] = 35c (spacer length 4) relative to 35a (spacer length 2)

dopamine D3 receptor, sequence (P19020 whole entry): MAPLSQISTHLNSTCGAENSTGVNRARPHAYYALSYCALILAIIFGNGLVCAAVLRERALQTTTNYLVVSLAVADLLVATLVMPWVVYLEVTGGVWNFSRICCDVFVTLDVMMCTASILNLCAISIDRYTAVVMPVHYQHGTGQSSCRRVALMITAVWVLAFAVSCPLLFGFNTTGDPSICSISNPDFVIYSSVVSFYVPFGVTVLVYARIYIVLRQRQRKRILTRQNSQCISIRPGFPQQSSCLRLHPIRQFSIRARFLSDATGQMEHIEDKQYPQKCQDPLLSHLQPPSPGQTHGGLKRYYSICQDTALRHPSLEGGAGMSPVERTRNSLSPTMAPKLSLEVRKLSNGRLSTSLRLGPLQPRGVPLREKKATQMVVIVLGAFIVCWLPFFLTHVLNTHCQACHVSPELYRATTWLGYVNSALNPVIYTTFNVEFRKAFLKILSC
dopamine D2L receptor, sequence (P61169 whole entry): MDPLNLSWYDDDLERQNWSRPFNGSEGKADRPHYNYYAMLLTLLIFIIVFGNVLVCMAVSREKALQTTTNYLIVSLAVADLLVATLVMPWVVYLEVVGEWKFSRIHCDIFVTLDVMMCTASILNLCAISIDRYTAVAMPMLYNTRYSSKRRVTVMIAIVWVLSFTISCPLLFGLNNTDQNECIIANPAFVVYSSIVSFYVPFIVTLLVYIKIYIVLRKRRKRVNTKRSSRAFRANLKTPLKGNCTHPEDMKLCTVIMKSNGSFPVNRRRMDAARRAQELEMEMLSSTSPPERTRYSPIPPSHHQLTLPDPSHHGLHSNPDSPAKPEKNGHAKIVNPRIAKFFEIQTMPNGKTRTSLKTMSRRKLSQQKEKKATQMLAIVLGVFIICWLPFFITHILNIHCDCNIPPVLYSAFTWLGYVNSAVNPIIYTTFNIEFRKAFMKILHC

Ki [1]: 0.0149 ± 0.0043 µM
SMILES: Oc1cccc2c1CC[C@H]1[C@H]2CCCN1CCN1CCN(c2ccccc2)CC1 (racemic) [(±)-8, (±)-trans-4-(2-(4-Phenylpiperazin-1-yl)ethyl)-1,2,3,4,4a,5,6,10b-octahydrobenzo[f]-quinolin-7-ol]

gain in affinity for D2 receptor [2, 3]: ~ 9 fold
gain in affinity for D3 receptor [1, 3]: ~ 3 fold
SMILES: Oc1ccc2c(c1)C[C@H]1[C@@H](CCCN1CCCCN1CCN(c3ccccc3)CC1)C2 (racemic) [(±)-35c, (±)-trans-1-[4-(4-Phenylpiperazin-1-yl)butyl]-1,2,3,4,4a,5,10,10a-octahydrobenzo-[g]quinolin-8-ol]

SMILES: CCCN(CCN1CCN(c2ccccc2)CC1)[C@H]1CCc2c(O)cccc2C1 [(−)-7]
difference in inhibition constants between enantiomers, D2L receptor ([2]; (−)-7 versus its enantiomer (+)-7): ~ 9 fold
